# Calls of active or inactive are those of the source.
# What was measured:
# [1] = target: T1, Zinc finger protein mex-5 (Caenorhabditis elegans, UniProt Q9XUB2); experiment: MEX-5/TCR-2 RNA interaction inhibitors, dose response, biochemical, C. elegans, fluorescence polarization (AID 1960)
# T1 sequence (Q9XUB2 whole entry): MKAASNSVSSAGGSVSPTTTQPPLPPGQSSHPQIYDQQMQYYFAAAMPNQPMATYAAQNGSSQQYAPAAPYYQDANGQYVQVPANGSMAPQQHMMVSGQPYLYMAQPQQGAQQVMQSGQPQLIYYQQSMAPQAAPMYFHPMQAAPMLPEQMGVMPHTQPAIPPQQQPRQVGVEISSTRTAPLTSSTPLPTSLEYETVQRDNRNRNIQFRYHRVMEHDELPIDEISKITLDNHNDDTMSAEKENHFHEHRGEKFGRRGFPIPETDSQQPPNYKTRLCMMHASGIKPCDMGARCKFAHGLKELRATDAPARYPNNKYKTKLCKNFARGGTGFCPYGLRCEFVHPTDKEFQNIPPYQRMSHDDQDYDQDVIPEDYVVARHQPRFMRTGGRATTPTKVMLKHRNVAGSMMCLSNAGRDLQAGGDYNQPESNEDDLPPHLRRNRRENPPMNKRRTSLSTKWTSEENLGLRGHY
# [2] = target: T2, Probable nicotinate-nucleotide adenylyltransferase (Staphylococcus aureus (strain N315), UniProt P65502); type: functional, Staphylococcus aureus subsp. aureus N315;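 for IC50 Mean: confirmatory dose-response retesting of NadD inhibitor hits first found in an ultra-high-throughput screen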
# [3] = target: T3, RNA-binding protein pos-1 (Caenorhabditis elegans, UniProt G5EF15); experiment: inhibitors of POS-1/mex-3 RNA binding, dose response, biochemical, fluorescence polarization (AID 1964);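 note: purified POS-1 fused to maltose binding protein made in E. coli; potency of compounds blocking POS-1 binding to fluorescent RNA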
# T3 sequence (G5EF15 whole entry): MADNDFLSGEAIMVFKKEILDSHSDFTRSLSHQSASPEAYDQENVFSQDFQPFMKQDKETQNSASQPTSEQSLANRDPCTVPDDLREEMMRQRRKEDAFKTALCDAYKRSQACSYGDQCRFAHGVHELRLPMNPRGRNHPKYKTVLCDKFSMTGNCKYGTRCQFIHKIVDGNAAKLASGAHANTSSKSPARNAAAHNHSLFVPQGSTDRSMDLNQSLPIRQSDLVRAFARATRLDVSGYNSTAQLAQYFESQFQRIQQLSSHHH
# [4] = target: T2, Probable nicotinate-nucleotide adenylyltransferase; type: functional, Staphylococcus aureus subsp. aureus N315; details: read-out: IC50_Mean
# Mu-type opioid receptor = Mu-type opioid receptor (Homo sapiens, UniProt P35372); type: functional, cell-based;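 note: U2OS cells with beta-arrestin recruitment to OPRM1 by beta-gal complementation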
# [5] = target: 5-hydroxytryptamine receptor 2A (Mus musculus, UniProt P35363); type: functional, cell-based;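 note: CHO-K1 cells with tagged receptor and beta-arrestin; agonist potency measured as compound-induced activation of the receptor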
# INS1 = experiment: beta cell apoptosis inhibitors, cytokine rescue, dose response, luminescence, retest (AID 449756); type: functional, cell-based; details: Rattus norvegicus;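 note: cell death triggered by IL-1 beta plus TNF-alpha plus IFN-gamma mixture; protective hits raise ATP signal compared with cytokine alone wells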
# [6] = target: Photoreceptor-specific nuclear receptor (Homo sapiens, UniProt Q9Y5X4); type: functional, cell-based;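 note: CHO-S cells with Gal4-NCOR and VP16-NR2E3 two-hybrid luciferase reporter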
# Paired box protein Pax-8 = Paired box protein Pax-8 (Homo sapiens, UniProt Q06710); experiment: inhibitors of PAX8-driven TPO luciferase reporter, dose response, RMG-I cells, cherry-pick (AID 687027); type: functional, cell-based;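 note: luciferase reporter driven by Pax8 target thyroperoxidase promoter measured by SteadyGlo luminescence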
# [7] = NIH:OVCAR-3 ovarian cancer cell cytotoxicity, dose response, PAX8 inhibitor project, plate reader, dry powder samples (AID 743044); type: functional, cell-based
# [8] = cytotoxicity in OVCAR8 ovarian cancer cells, dose response, PAX8 project, cell-based, plate reader, dry powder samples (AID 743197); type: functional; details: OVCAR-8
# [9] = IGROV1 ovarian cancer cell cytotoxicity, dose response, PAX8 inhibitor project, plate reader, dry powder samples (AID 743043); type: functional, cell-based; details: IGROV-1
# Major prion protein = Major prion protein (Homo sapiens, UniProt P04156); type: functional, cell-based
# [10] = target: T4, Small ubiquitin-related modifier 1 (Homo sapiens, UniProt P63165); experiment: inhibitors of SUMO1 peptide binding, dose response, biochemical, fluorescence polarization, uHTS hits (AID 624382); type: functional; details: read-out: IC50_Mean
# [11] = target: T5, Carboxy-terminal domain RNA polymerase II polypeptide A small phosphatase 1 (Homo sapiens, UniProt Q9GZU7); experiment: inhibitors of CTDSP1, concentration-response testing, biochemical assay, absorbance-based, actives from ultra-high-throughput screening (AID 540297); type: functional
# T5 sequence (Q9GZU7 whole entry): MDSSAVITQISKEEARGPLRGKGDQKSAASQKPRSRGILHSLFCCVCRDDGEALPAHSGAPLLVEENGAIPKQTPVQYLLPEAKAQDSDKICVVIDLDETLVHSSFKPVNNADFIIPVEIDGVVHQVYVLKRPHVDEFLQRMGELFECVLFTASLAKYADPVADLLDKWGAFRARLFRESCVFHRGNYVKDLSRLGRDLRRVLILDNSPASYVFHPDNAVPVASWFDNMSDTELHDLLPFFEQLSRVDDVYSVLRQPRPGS
# [12] = target: T4, Small ubiquitin-related modifier 1; experiment: inhibitors of SUMO1 partner interactions, dose response, biochemical, FRET (AID 624383); type: functional; details: read-out: IC50_Mean
# [13] = miR-122 activators in hepatoma reporter cells, dose response, cell-based, Huh7 psiCHECK-miR122, Renilla luciferase, cherry-picked (AID 651956); type: functional;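 note: huh7 hepatoma cells stably carrying a psiCHECK-2 miR-122 sensor plasmid; renilla luciferase signal reporting endogenous miR-122 activity after 48 h compound exposure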
# Cytochrome P450 2C9 = Cytochrome P450 2C9 (Homo sapiens, UniProt P11712)
# [14] = target: T6, High affinity choline transporter 1 (Homo sapiens, UniProt Q9GZV3); experiment: CHT inhibitors, dose response, cell-based, 5-point CRC, membrane potential dye (AID 504840); type: functional
# T6 sequence (Q9GZV3 whole entry): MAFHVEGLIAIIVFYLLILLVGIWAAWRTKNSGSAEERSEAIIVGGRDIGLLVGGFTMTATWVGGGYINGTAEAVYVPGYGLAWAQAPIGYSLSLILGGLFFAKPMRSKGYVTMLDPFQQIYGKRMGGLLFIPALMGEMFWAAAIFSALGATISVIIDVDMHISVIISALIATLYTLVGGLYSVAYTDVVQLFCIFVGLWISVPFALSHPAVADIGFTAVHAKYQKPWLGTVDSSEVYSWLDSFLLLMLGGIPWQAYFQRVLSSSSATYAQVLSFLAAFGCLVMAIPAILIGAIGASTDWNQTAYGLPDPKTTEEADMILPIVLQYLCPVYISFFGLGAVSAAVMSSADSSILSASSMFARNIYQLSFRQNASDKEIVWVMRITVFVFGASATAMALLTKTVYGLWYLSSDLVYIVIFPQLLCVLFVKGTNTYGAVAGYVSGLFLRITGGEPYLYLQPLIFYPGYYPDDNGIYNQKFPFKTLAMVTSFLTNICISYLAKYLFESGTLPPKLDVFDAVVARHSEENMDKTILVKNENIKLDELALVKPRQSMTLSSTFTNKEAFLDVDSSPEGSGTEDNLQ
# [15] = target: T6, High affinity choline transporter 1; experiment: CHT inhibitors, dose response, cell-based, 10-point CRC, membrane potential dye (AID 588401); type: functional;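 note: membrane potential dye fluorescence of choline-evoked depolarization via CHT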
# [16] = LGR2 antagonists, dose response, cell-based, HEK293, CRE-luciferase reporter, cherry pick, set 2 (AID 743343); type: functional;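 note: transfected cells were stimulated with diluted bursicon conditioned medium after compound addition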
# [17] = HepG2 cell cytotoxicity, dose response, cytotoxicity control, plate reader, cherry-pick, antagonist series (AID 743416); type: functional, cell-based
# [18] = A549 cell cytotoxicity, dose response, cytotoxicity control, plate reader, cherry-pick, antagonist series (AID 743412); type: functional, cell-based
# [19] = target: T7, ATP-dependent translocase ABCB1 (Homo sapiens, UniProt P08183); experiment: ABCB1 efflux inhibitor potency, dose response, Jurkat-DNR cells, JC-1, flow cytometry, set 2 (AID 504569); type: functional; details: read-out: EC50_MICROM_;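 note: potency of pump inhibitors that raise cellular JC-1 green fluorescence up to the nicardipine level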
# [20] = HEK293 cell cytotoxicity, dose response, cytotoxicity control, plate reader, cherry-picked samples (AID 743446); type: functional, cell-based
# [21] = MC4R antagonists, dose response, counter-screen for LGR2 antagonist project, cell-based, plate reader, cherry pick (AID 743444); type: functional;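 note: transfected HEK 293 cells stimulated with alpha-MSH peptide; potency of inhibitors of the alpha-MSH evoked signal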
# [22] = target: T8, COUP transcription factor 2 (Homo sapiens, UniProt P24468); experiment: Luminescence-based cell-based high throughput dose response assay to identify inhibitors of COUP-TFII (NR2F2).; type: functional;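 note: HEK293 cells transiently cotransfected with COUP-TFII expression vector and reporter; luciferase reporter luminescence driven by COUP-TFII from the pX2-168 reporter plasmid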
# T8 sequence (P24468 whole entry): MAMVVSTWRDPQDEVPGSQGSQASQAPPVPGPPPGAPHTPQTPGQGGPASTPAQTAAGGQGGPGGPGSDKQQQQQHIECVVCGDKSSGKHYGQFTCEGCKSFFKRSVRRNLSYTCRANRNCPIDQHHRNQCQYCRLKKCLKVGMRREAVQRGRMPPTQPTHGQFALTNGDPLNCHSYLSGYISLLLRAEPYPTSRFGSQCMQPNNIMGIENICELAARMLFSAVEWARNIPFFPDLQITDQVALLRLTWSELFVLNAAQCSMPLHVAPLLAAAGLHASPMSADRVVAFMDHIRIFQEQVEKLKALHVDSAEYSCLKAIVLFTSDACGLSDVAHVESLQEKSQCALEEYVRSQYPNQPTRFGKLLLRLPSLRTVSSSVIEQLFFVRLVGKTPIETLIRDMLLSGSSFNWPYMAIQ
# H9c2 = experiment: cells; type: functional, cell-based; details: Rattus norvegicus, H9c2, Myocardium;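 note: confirmatory concentration-response retest of ultra-high-throughput screening hits for modulation of myocardial damage; cell death induced by hydrogen peroxide oxidative stress; compound pretreatment for 60 min then peroxide exposure for 2 h; potency is for protecting the cells against peroxide damage rather than for killing them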
# [23] = target: T7, ATP-dependent translocase ABCB1; experiment: ABCG2 efflux pump inhibitor potency, dose response, Ig-MXP3 cells, JC-1, flow cytometry, set 2 (AID 504566); type: functional; details: read-out: EC50_MICROM_;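 note: flow cytometry median green fluorescence of retained JC-1 dye; potency of efflux pump inhibition measured as rising substrate retention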
# [24] = intracellular Trypanosoma cruzi inhibitors in host cells – cell-based, plate reader, cherry-pick samples, set 3, dose response (AID 651818); type: functional;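 note: compounds incubated with infected cells for about four days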
# [25] = target: DNA (cytosine-5)-methyltransferase 1 (Homo sapiens, UniProt P26358); experiment: DNMT1 methyltransferase inhibitors, confirmation, biochemical, fluorescent molecular beacon (AID 602386); type: functional
# Genome polyprotein = Genome polyprotein (dengue virus type 2, UniProt P29990); experiment: Dengue-2 NS5 methyltransferase inhibitors, primary screen, biochemical, confirmation dose response (AID 588689); type: functional
# [26] = T. cruzi growth inhibition in host cells, dose response, cell-based, plate reader, dry powder, set 2 (AID 652275); type: functional
# Beta-lactamase [27] = target: Beta-lactamase (Salmonella choleraesuis (strain SC-B67), UniProt Q5J463)
# Beta-lactamase [28] = target: Beta-lactamase (Pseudomonas aeruginosa, UniProt Q79MP6);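 note: biochemical dose-response test of metallo-beta-lactamase enzyme inhibition, read out by epi-absorbance; purified recombinant IMP-1 metallo-beta-lactamase with nitrocefin as substrate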
structure (smiles),measurement,setting,value
CCCCC1=CC2=CC(=O)C(C)(OC(=O)c3cccs3)C(=O)C2=CO1 (stereo unspecified),EC50,[1],30.9 µM (active)
same,IC50,[2],10.9 µM (active)
same,EC50,[3],35.4 µM (active)
same,IC50,[4],34.4 µM (active)
CCCN(CCC)C1CCc2ccc(O)cc2C1 (stereo unspecified),EC50,Mu-type opioid receptor,92.4 µM (inactive)
same,EC50,[5],0.0038 µM (active)
O=[N+]([O-])c1ccc(NC(S)=NCCc2ccc(F)cc2)cc1,AC50,INS1,6.89 µM (active)
same,IC50,[6],5.06 µM (active)
COc1cccc(-c2ccc3c(c2)[C@H]2[C@H](CCN2S(=O)(=O)c2ccccc2OC)[C@@H](CO)N3C)c1,AC50,Paired box protein Pax-8,11.1 µM (active)
same,AC50,[7],21.6 µM (active)
same,AC50,[8],25.4 µM (active)
same,AC50,[9],34.3 µM (active)
COc1cccc(-c2cc3c(=O)n(-c4ccccc4)c(=S)[nH]c3s2)c1,IC50,cells,> 138 µM (inactive)
same,IC50,Major prion protein,6.34 µM (active)
CCOC(=O)c1c(NC(=O)COC(=O)c2ccc(NC(=O)CC#N)cc2)sc(C(=O)NC)c1C,IC50,[10],> 66.6 µM (inactive)
same,IC50,[11],3.43 µM (active)
same,IC50,[12],6.69 µM (active)
Cc1ccc(-c2nc(NC(=O)CSc3nnnn3-c3ccccc3)ns2)cc1,IC50,[6],1.06 µM (active)
Cn1c(=O)c(C(=O)CSc2nncs2)c(N)n(Cc2ccccc2)c1=O,IC50,cells,> 138 µM (inactive)
same,IC50,Major prion protein,8.53 µM (active)
CNC(=O)C[C@H]1CC[C@@H]2[C@H](COc3ccc(NC(=O)Nc4ccccc4OC)cc3C(=O)N2C)O1,AC50,[13],23.1 µM (active)
COc1ccc(OC)c(Nc2nc3ccccc3n3cnnc23)c1,IC50,[10],> 66.6 µM (inactive)
same,IC50,[12],19.2 µM (active)
CC(=O)NN1C(=O)c2ccc(Oc3cccc([N+](=O)[O-])c3)cc2C1=O,AC50,Cytochrome P450 2C9,31.6 µM (inconclusive)
same,IC50,[14],9.92 µM (active)
same,IC50,[15],4.5 µM (active)
COC(=O)C1CCN(CC(=O)Nc2ccc3c(c2)OCCO3)CC1,EC50,Mu-type opioid receptor,92.5 µM (inactive)
same,EC50,[5],76.1 µM (inactive)
COc1ccccc1-c1cc2nc(-c3ccccc3)cc(N3CCN(C(=O)c4ccco4)CC3)n2n1,AC50,[16],6.6 µM (active)
same,AC50,[17],2.29 µM (active)
same,AC50,[18],7.34 µM (active)
same,EC50,[19],3.41 µM (active)
same,AC50,[20],7.31 µM (active)
same,AC50,[21],6.15 µM (active)
same,IC50,[22],4.17 µM (active)
same,IC50,H9c2,> 79 µM (inactive)
same,EC50,[23],0.94 µM (active)
C[C@@H]1CCCCO[C@@H](CN(C)Cc2ccc(C(F)(F)F)cc2)[C@@H](C)CN([C@H](C)CO)C(=O)c2cc(NC(=O)Nc3ccc(C(F)(F)F)cc3)ccc2O1,AC50,[24],3.49 µM (active)
Nc1ccc(S(=O)(=O)Nc2nccs2)cc1N=Nc1ccccc1[N+](=O)[O-],IC50,[25],7.09 µM (active)
same,IC50,Genome polyprotein,64.7 µM (active)
Cc1nc2cc(-c3cccc(Cl)c3)nn2c(N2CCN(C(=O)c3ccsc3)CC2)c1C,EC50,[19],4.62 µM (active)
same,EC50,[23],0.56 µM (active)
C[C@H]1CN([C@@H](C)CO)C(=O)Cc2cc(NS(=O)(=O)c3ccc(Cl)cc3)ccc2O[C@@H]1CN(C)Cc1ccc(-c2ccccc2)cc1,AC50,[24],3.8 µM (active)
Cc1ccccc1-c1ccc([C@H]2[C@H](CO)N3CCCCN(C(=O)CN4CCOCC4)C[C@@H]23)cc1,AC50,[26],0.42 µM (active)
Cc1nn(-c2ccccc2)c(Cl)c1/C=C(\CC(=O)O)c1nc2ccccc2s1,IC50,Beta-lactamase [27],> 59.6 µM (inactive)
same,IC50,Beta-lactamase [28],> 59.6 µM (inactive)

# Source: ChEMBL document CHEMBL1201862, “PubChem BioAssay data set” (2004)
